From patent US8377918B2 (ACC Therapeutics Inc, priority 2005, dated 2013)
Where two headings read alike, the source gives them in different places.

Tests used:
A2780/CP70 cells [1] = assay: MTT cell proliferation assay, A2780/CP70 ovarian cancer cells; type: cell-based, human; conditions: for IC50: 24 h
Experimental: (§1) FIG. 1. […] (A) A2780/CP70 cells and human fibroblast GM847 cells were seeded in 96-well plate at 4×10^3 cells per well and incubated overnight. […] The cells were incubated for 24 h. Cell proliferation was determined by MTT reduction. […] Cells were trypsinized, harvested, washed once with PBS buffer, and stained using the Annexin-V-Folus Kit as per the manufacture's instructions. […] After incubation, all cells were collected and total DNA was isolated. Eight (8) μg of DNA was resolved on 1.8% agarose gel. […] (D) Treatment of GM847 cells was the same as that of 5D. […] Cleavage of caspase-3 and PARP was detected by western-blot.
FIG. 3. […] A2780/CP70 cells were seeded in 96-well plates and incubated overnight. The old medium was discarded and fresh medium with cisplatin (CDDP) in the presence or absence of apigenin (Api) was added. In 24 h, the cell proliferation was determined by means of MTT reduction method.
FIG. 9. […] A, Cisplatin-resistant ovarian cancer cell line A2780/CP70, and B, prostate cancer cells PC-3 were seeded in 96-well plates at 1×10^4 cells/well and incubated overnight. […] In 24 h, the cell proliferation was assayed by using a MTT assay kit. *indicates significant difference compared to cisplatin alone (p<0.01).

PC-3 cells = assay: MTT cell proliferation assay, PC-3 prostate cancer cells; type: cell-based, human
Experimental: (§2) FIG. 8. […] Prostate cancer cells PC-3 and DU145 were seeded in 96-well plates at 1×10^4 cells/well. […] The cell proliferation was assayed by culturing the cells for 24 h, then adding 10 μl of MTT reagent with incubation for 2 h. The reaction was stopped by adding 100 μl of solubilization solution. The relative cell proliferation was obtained by the reading at 590 nm which was recorded in a spectrophotometer, and normalized to the value of control.
FIG. 9. […] A, Cisplatin-resistant ovarian cancer cell line A2780/CP70, and B, prostate cancer cells PC-3 were seeded in 96-well plates at 1×10^4 cells/well and incubated overnight.
(§3) FIG. 17. […] A, the prostate cancer cells PC-3 and DU145; B, colon cancer cells Colo-205 and HCT-116; C, lung cancer cells A549 and H460 cells were plated at 1×10^4 cells per well in a 96 well plate in 100 μl of media.
FIG. 18. […] A and B, the prostate cancer cells PC-3 and DU145; C, colon cancer cells Colo-205 and HCT-116; D, lung cancer cells A549 and H460 cells were plated at 1×10^4 cells per well in a 96 well plate in 100 μl of media. […] The cell proliferation was analyzed by MTT assay.
(§4) FIG. 19. […] A, prostate cancer cells PC-3; and B, DU145 cells were plated at 1×10^4 cells per well in a 96 well plate in 100 μl of media. […] Cell proliferation was examined by MTT assay.
(§5) FIG. 23. […] Cell proliferation was examined by MTT assay.

Colo-205 cells = assay: MTT cell proliferation assay, Colo-205 colon cancer cells; type: cell-based, human; conditions: colo-205, 15 μM apigenin, 24 h
Experimental: FIG. 17. […] A, the prostate cancer cells PC-3 and DU145; B, colon cancer cells Colo-205 and HCT-116; C, lung cancer cells A549 and H460 cells were plated at 1×10^4 cells per well in a 96 well plate in 100 μl of media. […] FIG. 20. […] A, the prostate cancer cells PC-3 and DU145; B, colon cancer cells Colo-205 and HCT-116; C, lung cancer cells A549 and H460 cells were plated at 1×10^4 cells per well in a 96 well plate. […] Cell proliferation was examined by MTT assay. […] FIG. 22. […] A, colon cancer cells Colo-205 and HCT-116; B, lung cancer cells A549 and H460 cells were plated at 1×10^4 cells per well in a 96 well plate the day before the treatment. […] Cell proliferation was examined by MTT assay. […] FIG. 24. […] The IC50 values for inhibiting cell proliferation were calculated from cell proliferation assay as described above.

H460 cells = assay: MTT cell proliferation assay, H460 lung cancer cells; type: cell-based, human; conditions: H460, 15 μM apigenin, 24 h
Experimental: FIG. 17. […] A, the prostate cancer cells PC-3 and DU145; B, colon cancer cells Colo-205 and HCT-116; C, lung cancer cells A549 and H460 cells were plated at 1×10^4 cells per well in a 96 well plate in 100 μl of media. […] FIG. 18. […] A and B, the prostate cancer cells PC-3 and DU145; C, colon cancer cells Colo-205 and HCT-116; D, lung cancer cells A549 and H460 cells were plated at 1×10^4 cells per well in a 96 well plate in 100 μl of media. […] The cell proliferation was analyzed by MTT assay. […] FIG. 22. […] A, colon cancer cells Colo-205 and HCT-116; B, lung cancer cells A549 and H460 cells were plated at 1×10^4 cells per well in a 96 well plate the day before the treatment. […] Cell proliferation was examined by MTT assay. […] FIG. 25.

A2780/CP70 cells [2] = assay: Annexin V apoptosis assay, A2780/CP70; type: cell-based, human; conditions: A2780/CP70, 10 μM cisplatin, 24 h
Experimental: as §1
FIG. 10. […] The cisplatin-resistant ovarian cancer A2780/CP70 cells were seeded in a petri dish. […] After treatment, the cells were collected and the relative cellular apoptosis was analyzed by Annexin V Kit (Roche), and compared to the control.

[3] = system: tumors induced by A2780/CP70 cells; assay: Tumor weight of A2780/CP70 tumors on CAM; type: in vivo, chicken embryo; conditions: 2.5 μM CDDP, 10 days
Experimental: (§6) FIG. 4. […] The A2780/CP70 cells were seeded into 100 mm dish and grown to 90-100% confluence. […] In 10 days, the tumors were harvested and weighed. The blood vessel numbers of the tumor were counted under×100. At least five areas were determined. The data are mean±SD from two experiments (n=8). A, representative tumor morphology; B, tumor weight; C, relative numbers of blood vessels.

[4] = system: tumors induced by A2780/CP70 cells; assay: Blood vessel numbers of A2780/CP70 tumors on CAM; type: in vivo, chicken embryo; conditions: 2.5 μM CDDP alone, 10 days
Experimental: as §6

[5] = system: PC-3 prostate cancer cells; assay: Cell survival by MTT reduction assay with taxol, PC-3; type: cell-based, human; conditions: for IC50: Homo sapiens, 48 h, read-out: IC50 of cell viability (cell survival)
Experimental: (§7) FIG. 11. […] PC-3 prostate cancer cells and A2780/CP70 ovarian cancer cells were seeded in 96-well plates and incubated overnight. […] After 48 h, cell survival was determined by means of MTT reduction assay.

[6] = system: A2780/CP70 ovarian cancer cells; assay: Cell survival by MTT reduction assay with taxol, A2780/CP70; type: cell-based, human; conditions: for IC50: Homo sapiens, A2780/CP70, 48 h, 48 h, read-out: IC50 of cell viability (cell survival)
Experimental: as §7

DU145 cells = assay: MTT cell proliferation assay, DU145 prostate cancer cells; type: cell-based, human; conditions: DU145, 15 μM apigenin, 24 h
Experimental: as §2, §3, §4
FIG. 21. […] A, the prostate cancer cells PC-3 and DU145; B and C, colon cancer cells Colo-205 and HCT-116 were plated at 1×10^4 cells per well in a 96 well plate in 100 μl of media a day before the treatment.
as §5

N.N.[Cl][Pt][Cl] [cisplatin]
reduction of cisplatin IC50 by apigenin (A2780/CP70 cells [1]; A2780/CP70, 10 μM apigenin): 4 fold | IC50 (A2780/CP70 cells [1]; A2780/CP70, cisplatin alone, read-out: concentration of cisplatin needed to inhibit 50% of cell proliferation (IC50)): ~20000 nM | IC50 (A2780/CP70 cells [1]; A2780/CP70, with addition of 10 μM apigenin, read-out: IC50 of cisplatin for cell proliferation): 5000 nM | reduction of cisplatin IC50 by apigenin (PC-3 cells; PC-3, 10 μM apigenin): 7 fold | IC50 (PC-3 cells; PC-3, in the presence of 10 μM apigenin, 24 h, read-out: cisplatin concentration giving 50% inhibition of cell proliferation): 3000 nM | decrease of IC50 by apigenin (Colo-205 cells): 3 fold | decrease of IC50 by combination with apigenin (H460 cells): 20 fold | apoptosis (A2780/CP70 cells [2]): low levels of apoptosis | effect on tumor growth [3]: slightly inhibited tumor growth | effect on blood vessel formation [4]: slightly inhibited the blood vessel formation

CC(=O)O[C@H]1C(=O)[C@@]2(C)[C@H]([C@H](OC(=O)c3ccccc3)[C@]3(O)C[C@H](OC(=O)[C@H](O)[C@@H](NC(=O)c4ccccc4)c4ccccc4)C(C)=C1C3(C)C)[C@]1(OC(C)=O)CO[C@@H]1C[C@@H]2O [taxol]
IC50 ([5]; PC-3, taxol alone): 577 nM | IC50 ([5]; PC-3, taxol with 20 μM apigenin): 50.3 nM | taxol IC50 with apigenin, fold less than taxol alone ([5]; PC-3, 20 μM apigenin): 11 fold | taxol IC50 with apigenin, fold less than taxol alone ([6]; A2780/CP70, 20 μM apigenin): 2 fold | IC50 ([6]; A2780/CP70, taxol alone): 503 nM | IC50 ([6]; A2780/CP70, taxol with 20 μM apigenin): 225 nM

COc1cccc2c1C(=O)c1c(O)c3c(c(O)c1C2=O)C[C@@](O)(C(=O)CO)C[C@@H]3O[C@H]1C[C@H](N)[C@H](O)[C@H](C)O1 [doxorubicin]
reduction of IC50 of doxorubicin by apigenin (PC-3 cells; PC-3, 15 μM apigenin, 24 h): 2 fold | decrease of IC50 by combination with apigenin (H460 cells): 20 fold

CO[C@@]12[C@H](COC(N)=O)C3=C(C(=O)C(C)=C(N)C3=O)N1C[C@@H]1N[C@@H]12 [mitomycin C]
decrease of IC50 by apigenin (Colo-205 cells): 7 fold

O=c1[nH]cc(F)c(=O)[nH]1 [fluorouracil, reference compound]
reduction of IC50 of fluorouracil by apigenin (DU145 cells): 70%
